# Columns and labels:
# [1] = tested on: cell wall UCP; details: wild type strains of C. reinhardtii; prior studies, U.S. Pat. No. 7,105,718; cited from earlier work
# [2] = tested on: Schizochytrium; test: Forward versus side scatter flow cytometry for oxamate-induced cell death; assay type: cell-based; details: at higher concentrations of oxamate, FIG. 3
# Protocol: Schizochytrium or chlamydomonas were harvested, counted, and resuspended at 10^6 cells/100 μl of PBS containing 2.5% fetal calf serum in preparation for flow cytometric analysis. Lysosensor dyes were used to detect fatty acids in glyoxosomes or oil droplets. Mitochondrial membrane potential was assessed using Mitotracker Red (CM-H2XROS, BD Pharmingen). The cells were resuspended in PBS containing 2.5% fetal calf serum containing a final concentration of 0.5 micromolar Mitotracker dye. The cells were incubated at 37° for 20 minutes, washed twice in PBS containing 2.5% fetal calf serum and analyzed flow cytometrically. Data were acquired on a Coulter Excel flow cytometer (Coulter, Hialeah, Fla.) and analyzed with FloJo software. […] Each sample population was classified for cell size (forward scatter) and complexity (side scatter), gated on a population of interest and evaluated using 30,000 cells.
# Percents: Gating is a tool provided by FloJo software and allows for the analysis of a certain population of cells. […] After the gates were drawn, a percent value of dead cells was calculated by taking the number of dead cells divided by the number of total cells and multiplying by one hundred.
# The bar graph in FIG. 3 depicts the increase in geometric mean of fluorescence in the treated group minus the untreated. […]
SMILES,cell wall expression of UCP [1],percentage of cell death [2]
CNc1cnn(-c2cccc(C(F)(F)F)c2)c(=O)c1Cl [norflurazon],did upregulate cell wall expression of UCP,–
"NC(=O)C(=O)O [Oxamate, oxamate]",–,significantly increased percentage of cell death

# From patent publication US8450090B2, “Compositions and methods for promoting fatty acid production in plants” (The Regents of the University of Colorado, a body corporate, priority 2009, dated 2013)
